According to patent US20240026262A1, “METHODS AND DEVICES FOR EX-UTERO MOUSE EMBRYONIC DEVELOPMENT” (Yeda Research and Development Co. Ltd., priority 2021, published 2024):
Entries after “also recorded” stand apart in the source; their conditions may differ.

What was measured:
mouse embryos = experiment: Ex utero culture of mouse embryos from E6.5 in supplemented EUCM, proper embryo development per stage
Method: E5.5 and E6.5 embryos ex utero culture—Cultures starting with pre-gastrulation (E5.5) and early gastrulation (E6.5) embryos were effected in static culture conditions until the early somite stage. Embryos were dissected out of the uterus and individual embryos were transferred into each well of a 8-wells glass bottom/ibiTreat μ-plates (iBidi; 80827/80826) filled with 250 μl of EUCM. To optimize culturing conditions, different media, oxygen concentrations (5% or 21%), extracellular matrices (Matrigel), supplements (N2/B27), and gas pressures (hyperbaric 2.5 or 5 psi) were tested. Media was pre-heated for an hour in an incubator with 5% CO2 at 37° C. Pre-primitive streak stage embryos (distal and anterior visceral endoderm stage) were chosen for culture in the case of E5.5, and early-primitive streak stage embryos were selected for cultures beginning at E6.5. Only embryos with no evident damage and without Reichert's membrane were cultured. Half a volume of media was replaced every 24 hours. Embryos were transferred into the rotating culture at the 4-7 somite stage (three days for cultures started at E5.5 and two days for cultures started at E6.5) or at the late gastrulation stage using the same conditions described previously for E8.5, with the difference that embryos were maintained in a constant atmosphere of 21% oxygen and 5% CO2. Transfer of the embryos at earlier or later stages results in failure of further development. Dynamic oxygen conditions yielded slightly less efficiency for expanding E6.5-E11 than using constant 21% oxygen (FIGS. 10A-B). This difference could result from oxygen diffusion in static conditions being be less efficient than in roller conditions, and that might be why higher oxygen is needed to be delivered in protocols that include static conditions. To allow further culture of the embryos until the stage (E13.5), oxygen was increased to 95% from E10.5 onwards and at E11.5 the embryos were dissected out of the yolk sac and amnion carefully avoiding rupture of any major yolk sac blood vessels, but keeping the yolk sac and umbilical cord attached to the embryo. Morphological evaluation of mouse embryo development—Assessment of appropriate embryo development was performed based on previously established morphological features [Van Maele-Fabry, G., et al. Toxicol. Vitr. 4, 149-156 (1990); Van Maele-Fabry, G., et al. Int. J. Dev. Biol. 36, 161-167 (1992)]. Only embryos presenting all of the following features were considered as properly developed. Proper development at the morphological level from E5.5/E6.5 to E8.5 was assessed as follows: At E6.5, the embryos are constituted by three cell lineages: the cup-shaped pluripotent epiblast (Epi) and two extra-embryonic lineages, the extraembryonic ectoderm (ExE) and the visceral endoderm (VE). The cavities in the embryonic and extraembryonic compartments are unified to form the pro-amniotic cavity, radial symmetry is broken in the epiblast to initiate specification of the primitive streak. After 1 or 2 days of culture ex utero (depending on the time of culture initiation, E5.5 or E6.5), the embryos reach the neural plate stage equivalent to E7.5, with no allantoic bud or early bud. The amniotic folds fuse to form the amnion, and the chorion develops from the ExE and the extraembryonic mesoderm. These events generate three cavities in the embryo: amniotic, exocoelomic and ectoplacental cavities. A small allantois bud is present in some of the embryos, at the base of the primitive streak, and the anterior ectoderm begins to form the future neural groove. On the following day, cultured embryos present between 4 to 8 pairs of somites with the embryo curved dorsally, the yolk sac and yolk sac blood circulation has been established, the allantois started to fuse with the chorion, head folds are well-formed as well as the invaginating foregut and beating heart. […]

[1] = test system: neural tube closure in mouse embryos; experiment: Teratogenic experiments in mouse embryos cultured ex utero since E7.5; details: 1 mM in culture media from E8.5 to E9.5, n=6
Method: E7.5 embryo dissection and ex utero culture—Mouse embryos were obtained from non-hormone primed pregnant mice sacrificed by cervical dislocation at E7.5. Subsequently, embryos were dissected out from the uterus in dissection medium pre-equilibrated at 37° C. for 1 hour, consisting of DMEM (GIBCO 11880; includes already 1 mg/mL D-glucose and pyruvate, without phenol red and without L-glutamine) supplemented with 10% Fetal Bovine Serum (Biological Industries; 040131A), sterilized by using a 0.22 μm filter (JetBiofil; FCA-206-250). The embryos were carefully dissected from the decidua and parietal yolk sac leaving the intact ectoplacental cone attached to the egg cylinder. Briefly, the decidua was isolated from the uterine tissue and the tip of the pear-shaped decidua was cut. The decidua was then opened into halves by introducing the forceps adjacent to the embryo in parallel to its long axis and subsequently opening the forceps. Afterwards the embryo was grasped from the decidua and the parietal yolk sac was peeled off the embryo using two forceps. Embryo dissection was performed on a microscope equipped with a Tokai Hit thermo plate at 37° C., within a maximum of 30 minutes to avoid affecting the embryo developmental potential. […] Developmental stage of the embryos was determined according to Downs & Davies^5. […]

CC(=O)C(=O)[O-].[Na+] [sodium pyruvate]
effect on forebrain growth and forebrain defects (mouse embryos; 1 mM sodium pyruvate added to EUCM): promotes forebrain growth and eliminates forebrain defects
proper embryo development at E7.5 (mouse embryos; EUCM with additional 4 mg/ml glucose and 1 mM sodium pyruvate since E6.5, stage E7.5): 8/8 - 100%
proper embryo development at E8.5 (embryos/total) (mouse embryos; EUCM with additional 4 mg/ml glucose and 1 mM sodium pyruvate since E6.5, stage E8.5): 7/7 (1 attached)
proper embryo development at E9.5 (mouse embryos; EUCM with additional 4 mg/ml glucose and 1 mM sodium pyruvate since E6.5, stage E9.5): 6/7 - 85.7%
proper embryo development at E10.5 (mouse embryos; EUCM with additional 4 mg/ml glucose and 1 mM sodium pyruvate since E6.5, stage E10.5): 6/7 - 85.7%
proper embryo development at E11.5 (mouse embryos; EUCM with additional 4 mg/ml glucose and 1 mM sodium pyruvate since E6.5, stage E11.5): 4/7 - 57%
proper embryo development at E12.5 (mouse embryos; EUCM with additional 4 mg/ml glucose and 1 mM sodium pyruvate since E6.5, stage E12.5): 4/7 - 57%
effect on culture efficiency (mouse embryos; additional 4 mg/ml glucose and 1 mM sodium pyruvate in EUCM since E6.5): helps to improve culture efficiency

CCCC(CCC)C(=O)O [valproic acid]
teratogenic effect on neural tube closure [1]: neural tube closure defects; also recorded: teratogenic effects of valproic acid on neural tube closure could be recapitulated
